Test results as given in patent US20110212235A1, “ANTIMICROBIAL SALT SOLUTIONS FOR CHEESE PROCESSING APPLICATIONS” (priority 2006, published 2011).

Legend:
L. monocytogenes [1] = test: L. monocytogenes challenge in hot dog plant chill brine at −20° C.; type: cell-based
Method: 1. Inoculate a separate tube containing approximately 10 ml of Brain Heart infusion (BHI) broth with the following L. monocytogenes strains: H2446 (CDC Global Standard), Scott A (serotype 4b), 12243 (serotype 1/2a), and two strains isolated from the environment of a cooked meat and poultry facility, designated WP1, and WP4. Incubate the tubes at least 5 days at 7-10° C.+/−2° C. 2. Assume the growth to be 10^9 cfu/ml. Serially dilute each culture in cold (˜7° C.). Butterfield's Phosphate Buffered Water (PBW) to 10^8 cfu/ml (1:10). Since five cultures of L. monocytogenes are being used as a cocktail, begin the dilution series using […] of each culture added to 99 ml of PBW. 3. Plate (−6, −7, −8) the diluted culture to get the starting count of the inoculum on Modified Oxford medium (MOX) using a thin agar overlay (TAL) technique (overlay with Trypticase Soy Agar [TSA]) to revive injured cells. 4. Add 1 ml of the diluted cocktail to 100 ml of cold test solution. 5. Mix the solutions well. 6. Determine the L. monocytogenes population at time 0 and 4 hours. Plate −1 (0.1 ml on 1 plate), −2, −3, and −4 dilutions using spread plates on MOX TAL with TSA. 7. Incubate the test solutions at test temperature for the duration of the experiment. 8. Incubate the MOX TAL with TSA plates at 20° C.+/−2° C. for 72+/−3 hours. Count representative colonies, which are black, and multiply by the dilution factor. […]

L. monocytogenes [2] = test: L. monocytogenes kill in cold salt/acid/surfactant solutions; type: cell-based
Method: To study chilling brine application of the current embodiment, tests were run on 17% by weight solutions of formulas consisting of between 0.3% and 6.0% citric acid, between 50 and 500 ppm SLS, and between 94% and 99.7% sodium chloride. Test solutions were cooled to −7° C. and inoculated with several strains of L. monocytogenes.
An experiment was run to determine if solutions containing sodium chloride, sodium lauryl sulfate, and various acids would kill L. monocytogenes at cold temperatures. […] A 1.0 ml aliquot of this suspension was added to 100 ml of cold (−7° C.+2° C.) test solution and mixed well, providing an initial inoculum of 10^3 CFU/ml. The test solutions were incubated at −7° C.+/−2° C. for the duration of the experiment. At intervals of 0, 4, and 24 hours the L. monocytogenes populations in the test solutions were determined on Modified Oxford agar (MOX). MOX plates were incubated at 35° C.+/−2° C. for approximately 48 hours. Colonies were then counted and compared to the initial inoculum counts.
Each test solution was a 17% by weight solution of the listed formula prepared in soft water.
In another experiment, 17% by weight solutions of formulas containing various levels of sodium chloride, citric acid, and sodium lauryl sulfate were tested for effectiveness in killing L. monocytogenes at cold temperatures. The same test procedure was used as described above, except test solutions were plated on MOX with a Thin Agar Overlay of TSA (to aid in the recovery of injured cells).
In another experiment, two sets of solutions were tested. The first set (samples 1-12 in Table 10 below) was prepared in hard tap water and contained about 17.0% by mass of the formulation. These samples were inoculated with 10^3 CFU/ml L. monocytogenes by the same procedure as described above. A second set of samples was prepared from brine taken from a ready-to-eat meat processing operation. The recirculated brine had been used to chill packaged meat for one week. After a week of use the brine typically contains various types of aerobic psychotropic and mesophilic bacteria. This experiment was done in order to determine if the additives would kill the microorganisms naturally occurring in actual process brine from a plant. Since the spent chill brine samples already contained NaCl citric acid and/or SLS was added to provide an effective concentration of additive. One set of these samples (samples 13-17) were inoculated with 10^3 L. monocytogenes and the other set (samples 18-22) contained only the naturally occurring organisms in the spent chill brine. […] Other antimicrobials, such as quaternary ammonium compounds can lose significant activity in hard water, often necessitating further additives, such as EDTA as a chelating agent, to maintain antimicrobial activity.
Another set of experiments was done in order to determine the effectiveness of different acids and different types of surfactants in the antimicrobial salt formulations. In one experiment, test solutions containing ˜17% by weight of formulas containing various levels of sodium chloride, 100 ppm sodium lauryl sulfate, and various levels of different acids were tested for effectiveness in killing L. monocytogenes at cold temperatures. The same test procedure was used as described above (test solutions were plated on MOX TAL (Modified Oxford Medium with a Thin Agar Layer) with TSA). The controls were a solution of pure NaCl, a solution of a blend of 100 ppm SLS in NaCl, and a solution of a blend of 0.5% citric acid, 100 ppm SLS, and 99.5% NaCl.

[3] = pH and water activity of test solutions; type: physicochemical
[4] = 17% by weight solution in soft water, −7° C., MOX
[5] = 17% by weight solution, −6.7° C., MOX with thin agar overlay
[6] = 17% by weight solution of the formula in soft water, Table 8

| Molecule | effectiveness at lower concentration (L. monocytogenes [1]; 12.5 ppm in the hot dog plant brine) | kill of L. monocytogenes inoculum (L. monocytogenes [1]; 50 ppm, within 4 hours, −20° C., hot dog plant brine) [log] | L. monocytogenes, Time 4 Hours (L. monocytogenes [2]; 4 hours, 17% by weight of formula of 99.7% sodium chloride, 0.3% citric acid, 500 ppm of listed surfactant, cold) [CFU/ml] | L. monocytogenes, Time 0 (L. monocytogenes [2]; 17% by weight of formula of 99.7% sodium chloride, 0.3% citric acid, 500 ppm of listed surfactant, cold) [CFU/ml] | L. monocytogenes, 24 (L. monocytogenes [2]; 24, about 17.0% of formulation in hard tap water) [cfu/ml] | L. monocytogenes, 2 hr (L. monocytogenes [2]; 2 hr, about 17.0% of formulation in hard tap water) [cfu/ml] | L. monocytogenes, 4 hr (L. monocytogenes [2]; [4]) [CFU/ml] | L. monocytogenes, 4 hr (L. monocytogenes [2]; [5]) [CFU/ml] | L. monocytogenes, 24 hr (L. monocytogenes [2]; [4]) [CFU/ml] | L. monocytogenes, 24 hr (L. monocytogenes [2]; [5]) [CFU/ml] | L. monocytogenes, Time 0 (L. monocytogenes [2]; 17% by weight solution of the formula in soft water, −7° C., MOX) [CFU/ml] | L. monocytogenes, Time 0 (L. monocytogenes [2]; 17% by weight solution, −6.7° C., MOX with thin agar overlay of TSA) [CFU/ml] | L. monocytogenes, Time 0 (L. monocytogenes [2]; about 17.0% of formulation in hard tap water (27 gpg), inoculated 10^3 CFU/ml) [cfu/ml] | Water Activity [3, 6] | pH [3, 6] | pH ([3]; 17% by weight solution of the formula, Table 9) |
| --- | --- | --- | --- | --- | --- | --- | --- | --- | --- | --- | --- | --- | --- | --- | --- | --- |
| alcohol ethoxylate | as effective as 50 ppm | ~5 | 1 | 1080 | – | – | – | – | – | – | – | – | – | – | – | – |
| [Cl-].[Na+] [100% NaCl, sodium chloride, reference compound] | – | – | – | – | 1100 | 1100 | 1250 | ~6250 | 1170 | 2290 | 1550 | ~7000 | 760 | 0.88 | 7.88 | 7.66 |
